Patent publication US20200361871A1 (Enterprise Therapeutics Ltd., priority 2018, published 2020)

Molecular target: human TMEM16A (TMEM16Aabc variant) (Homo sapiens, UniProt Q5XXA6, DEL476-501, form not given)
Assay: Automated whole-cell patch clamp (Qpatch) TMEM16A potentiator assay in FRT cells stably expressing human TMEM16A
Type: cell-based
Conditions: for % Potentiation @ 3.33 μM Avg: 3.33 μM solution of test compound, percentage increase of baseline TMEM16A current; for EC50: calculated EC50, Qpatch TMEM16A current at +70 mV
Procedure, shortened: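 Potentiation was read as the rise in peak +70 mV current over baseline (%), from cumulative 5-min additions of compound. Recordings used whole-cell automated patch of FRT cells stably carrying human TMEM16Aabc, with pipette Ca2+ buffered to give ~20% maximal current. EC50 and efficacy came from concentration-response fits.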

Sequence of human TMEM16A (TMEM16Aabc variant) (Q5XXA6 with tags, fused parts or gaps DEL476-501): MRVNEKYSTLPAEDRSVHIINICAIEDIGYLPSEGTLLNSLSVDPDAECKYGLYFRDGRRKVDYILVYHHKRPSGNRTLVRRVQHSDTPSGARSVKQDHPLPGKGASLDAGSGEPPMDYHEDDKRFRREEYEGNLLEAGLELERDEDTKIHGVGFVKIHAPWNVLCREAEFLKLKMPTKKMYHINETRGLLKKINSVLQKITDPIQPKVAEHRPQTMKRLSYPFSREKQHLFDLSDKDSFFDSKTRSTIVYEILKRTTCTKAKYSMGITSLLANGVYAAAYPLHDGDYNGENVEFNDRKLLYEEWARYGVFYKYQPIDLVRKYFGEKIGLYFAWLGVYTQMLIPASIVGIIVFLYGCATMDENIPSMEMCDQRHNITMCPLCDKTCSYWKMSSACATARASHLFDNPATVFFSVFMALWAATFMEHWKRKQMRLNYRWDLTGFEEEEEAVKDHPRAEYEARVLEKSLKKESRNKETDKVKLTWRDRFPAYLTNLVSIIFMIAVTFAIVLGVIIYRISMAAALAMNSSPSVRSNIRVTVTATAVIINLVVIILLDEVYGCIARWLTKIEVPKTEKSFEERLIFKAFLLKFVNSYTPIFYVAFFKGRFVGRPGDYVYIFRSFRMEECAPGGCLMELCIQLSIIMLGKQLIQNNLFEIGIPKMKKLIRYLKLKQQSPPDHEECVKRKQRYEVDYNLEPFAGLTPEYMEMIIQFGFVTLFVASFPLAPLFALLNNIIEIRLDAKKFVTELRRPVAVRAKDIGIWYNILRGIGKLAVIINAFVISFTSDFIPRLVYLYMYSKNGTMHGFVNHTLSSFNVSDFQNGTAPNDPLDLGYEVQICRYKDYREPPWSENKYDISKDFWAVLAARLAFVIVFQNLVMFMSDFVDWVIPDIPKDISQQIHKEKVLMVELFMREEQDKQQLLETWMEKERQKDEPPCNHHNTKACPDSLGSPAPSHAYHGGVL

Row | Structure (SMILES) | % Potentiation @ 3.33 μM Avg [%] | EC50 [µM]
1 | O=C(Cc1cc(Cl)ccc1O)Nc1ccnc(C(=O)N[C@H]2CCCC[C@H]2CO)c1 [Example 35.2, 4-[[2-(5-Chloro-2-hydroxy-phenyl)acetyl]amino]-N-[(1s,2r)-2-(hydroxymethyl)cyclohexyl]pyridine-2-carboxamide] | 300 | 0.61
2 | O=C(Cc1cc(Cl)ccc1O)Nc1ccnc(C(=O)N[C@H]2CC[C@@H](O)C2)c1 [Example 35.3, 4-[[2-(5-Chloro-2-hydroxy-phenyl)acetyl]amino]-N-[(1s,3r)-3-hydroxycyclopentyl]pyridine-2-carboxamide] | 144 | –
3 | CC(CO)(CO)NC(=O)c1cc(NC(=O)Cc2cc(Cl)ccc2O)ccn1 [Example 35.4, 4-[[2-(5-Chloro-2-hydroxy-phenyl)acetyl]amino]-N-[2-hydroxy-1-(hydroxymethyl)-1-methyl-ethyl]pyridine-2-carboxamide] | 138 | –
4 | O=C(Cc1cc(Cl)ccc1O)Nc1ccnc(C(=O)NC2CCCC(O)C2)c1 (centres unmarked) [Example 35.6, 4-[[2-(5-Chloro-2-hydroxy-phenyl)acetyl]amino]-N-(3-hydroxycyclohexyl)pyridine-2-carboxamide] | 53 | –
5 | O=C(Cc1cc(Cl)ccc1O)Nc1ccnc(C(=O)NCCCOc2ccccc2)c1 [Example 35.7, 4-[[2-(5-Chloro-2-hydroxy-phenyl)acetyl]amino]-N-(3-phenoxypropyl)pyridine-2-carboxamide] | 97 | –
6 | CC1(NC(=O)c2cc(NC(=O)Cc3cc(Cl)ccc3O)ccn2)CC1 [Example 35.8, 4-[[2-(5-Chloro-2-hydroxy-phenyl)acetyl]amino]-N-(1-methylcyclopropyl)pyridine-2-carboxamide] | 250 | 0.18
7 | CC(C)(NC(=O)c1cc(NC(=O)Cc2cc(Cl)ccc2O)ccn1)c1ccccn1 [Example 35.9, 4-[[2-(5-Chloro-2-hydroxy-phenyl)acetyl]amino]-N-[1-methyl-1-(2-pyridyl)ethyl]pyridine-2-carboxamide] | 455 | 0.54
8 | O=C(Cc1cc(Cl)ccc1O)Nc1ccnc(C(=O)NCCCc2ccccc2)c1 [Example 35.10, 4-[[2-(5-Chloro-2-hydroxy-phenyl)acetyl]amino]-N-(3-phenylpropyl)pyridine-2-carboxamide] | 223 | 0.28
9 | O=C(Cc1cc(Cl)ccc1O)Nc1ccnc(C(=O)NC(CO)c2ccccn2)c1 (centres unmarked) [Example 35.11, 4-[[2-(5-Chloro-2-hydroxy-phenyl)acetyl]amino]-N-[2-hydroxy-1-(2-pyridyl)ethyl] pyridine-2-carboxamide] | 107 | –
10 | COc1ccc(CNC(=O)c2cc(NC(=O)Cc3cc(Cl)ccc3O)ccn2)nc1 [Example 35.12, 4-[[2-(5-Chloro-2-hydroxy-phenyl)acetyl]amino]-N-[(5-methoxy-2-pyridyl)methyl]pyridine-2-carboxamide] | 158 | 0.42
11 | CCOC(=O)CC(C)(C)NC(=O)c1cc(NC(=O)Cc2cc(Cl)ccc2O)ccn1 [Example 35.13, ethyl 3-[[4-[[2-(5-chloro-2-hydroxy-phenyl)acetyl]amino]pyridine-2-carbonyl]amino]-3-methyl-butanoate] | 191 | 0.35
12 | CC(C)(CCO)NC(=O)c1cc(NC(=O)Cc2cc(Cl)ccc2O)ccn1 [Example 35.14, 4-[[2-(5-Chloro-2-hydroxy-phenyl)acetyl]amino]-N-(3-hydroxy-1,1-dimethyl-propyl)pyridine-2-carboxamide] | 172 | 0.27
13 | O=C(Cc1cc(Cl)ccc1O)Nc1ccnc(C(=O)NCc2ccccc2)c1 [Example 35.15, N-Benzyl-4-[[2-(5-chloro-2-hydroxy-phenyl)acetyl]amino]pyridine-2-carboxamide] | 158 | 0.15
14 | O=C(Cc1cc(Cl)ccc1O)Nc1ccnc(C(=O)Nc2ccccc2)c1 [Example 35.16, 4-[[2-(5-Chloro-2-hydroxy-phenyl)acetyl]amino]-N-phenyl-pyridine-2-carboxamide] | 85 | 0.33
15 | O=C(Cc1cc(Cl)ccc1O)Nc1ccnc(C(=O)N[C@H]2CCC[C@@H]2O)c1 [Example 35.17, 4-[[2-(5-Chloro-2-hydroxy-phenyl)acetyl]amino]-N-[(1S,2S)-2-hydroxycyclopentyl]pyridine-2-carboxamide] | 153 | 0.15
16 | O=C(Cc1cc(Cl)ccc1O)Nc1ccnc(C(=O)N[C@@H]2CCC[C@@H]2O)c1 [Example 35.18, 4-[[2-(5-Chloro-2-hydroxy-phenyl)acetyl]amino]-N-[(1R,2S)-2-hydroxycyclopentyl]pyridine-2-carboxamide] | 147 | 0.43
17 | O=C(Cc1cc(Cl)ccc1O)Nc1ccnc(C(=O)N[C@H]2CCC[C@H]2O)c1 [Example 35.19, 4-[[2-(5-Chloro-2-hydroxy-phenyl)acetyl]amino]-N-[(1S,2R)-2-hydroxycyclopentyl]pyridine-2-carboxamide] | 248 | 0.47

Row | Structure (SMILES) | % Potentiation @ 3.33 μM Avg [%] | EC50 [µM]
18 | CC1(NC(=O)c2cccc(NC(=O)Cc3cc(F)ccc3O)c2)CCCCC1 [Example 35.20, 3-[[2-(5-Fluoro-2-hydroxy-phenyl)acetyl]amino]-N-(1-methylcyclohexyl)benzamide] | 240 | 0.42
19 | C#CC(C)(C)NC(=O)c1cccc(NC(=O)Cc2cc(F)ccc2O)c1 [Example 35.21, N-(1,1-Dimethylprop-2-ynyl)-3-[[2-(5-fluoro-2-hydroxy-phenyl)acetyl]amino]benzamide] | 200 | 0.41
20 | O=C(Cc1cc(F)ccc1O)Nc1cccc(C(=O)NC2CCCCC2)c1 [Example 35.22, N-Cyclohexyl-3-[[2-(5-fluoro-2-hydroxy-phenyl)acetyl]amino]benzamide] | 104 | 0.22
21 | C#CC1(NC(=O)c2cc(NC(=O)Cc3cc(Cl)ccc3O)ccn2)CCCCC1 [Example 35.24, 4-[[2-(5-Chloro-2-hydroxy-phenyl)acetyl]amino]-N-(1-ethynylcyclohexyl)pyridine-2-carboxamide] | 120 | 0.01
22 | O=C(Cc1cc(Cl)ccc1O)Nc1ccnc(C(=O)NC2(CO)CCC2)c1 [Example 35.25, 4-[[2-(5-Chloro-2-hydroxy-phenyl)acetyl]amino]-N-[1-(hydroxymethyl)cyclobutyl]pyridine-2-carboxamide] | 126 | 0.1
23 | O=C(Cc1cc(Cl)ccc1O)Nc1ccnc(C(=O)NC2(CO)COC2)c1 [Example 35.26, 4-[[2-(5-Chloro-2-hydroxy-phenyl)acetyl]amino]-N-[3-(hydroxymethyl)oxetan-3-yl]pyridine-2-carboxamide] | 157 | –
24 | COCC(C)(C#N)NC(=O)c1cc(NC(=O)Cc2cc(Cl)ccc2O)ccn1 (centres unmarked) [Example 35.27, 4-[[2-(5-Chloro-2-hydroxy-phenyl)acetyl]amino]-N-(1-cyano-2-methoxy-1-methyl-ethyl)pyridine-2-carboxamide] | 496 | 0.33
25 | CC(C)C(C)(C#N)NC(=O)c1cc(NC(=O)Cc2cc(Cl)ccc2O)ccn1 (centres unmarked) [Example 37, 4-[[2-(5-Chloro-2-hydroxy-phenyl)acetyl]amino]-N-(1-cyano-1,2-dimethyl-propyl)pyridine-2-carboxamide] | 352 | 0.12
26 | CC1(NC(=O)c2cc(NC(=O)Cc3cc(Cl)ccc3O)ccn2)CCCC1 [Example 38, 4-[[2-(5-Chloro-2-hydroxy-phenyl)acetyl]amino]-N-(1-methylcyclopentyl)pyridine-2-carboxamide] | 307 | 0.05
27 | CC(C)(C)C1CCC(NC(=O)c2cc(NC(=O)Cc3cc(Cl)ccc3O)ccn2)CC1 (centres unmarked) [Example 39, N-(4-tert-Butylcyclohexyl)-4-[[2-(5-chloro-2-hydroxy-phenyl)acetyl]amino]pyridine-2-carboxamide] | 262 | 0.06
28 | CC(C)(C)NC(=O)c1cc(NC(=O)Cc2cccc(F)c2Cl)ccn1 [Example 40, N-tert-Butyl-4-[[2-(2-chloro-3-fluoro-phenyl)acetyl]amino] pyridine-2-carboxamide] | 153 | 0.7
29 | CC(C)(C)NC(=O)c1cc(NC(=O)Cc2cc(F)ccc2Cl)ccn1 [Example 40.1, N-tert-Butyl-4-[[2-(2-chloro-5-fluoro-phenyl)acetyl]amino] pyridine-2-carboxamide] | 91 | 0.87
30 | N#CC1(NC(=O)c2cccc(NC(=O)Cc3cc(F)ccc3O)c2)CCOCC1 [Example 41, N-(4-Cyanotetrahydropyran-4-yl)-3-[[2-(5-fluoro-2-hydroxy-phenyl)acetyl]amino] benzamide] | 38 | –
31 | O=C(Cc1cc(Cl)ccc1O)Nc1ccnc(C(=O)NC2(CCO)CCOCC2)c1 [Example 42, 4-[[2-(5-Chloro-2-hydroxy-phenyl)acetyl]amino]-N-[4-(2-hydroxyethyl)tetrahydropyran-4-yl]pyridine-2-carboxamide] | 143 | 0.76
32 | CC(C)(CCNCC(F)(F)F)NC(=O)c1cc(NC(=O)Cc2cc(Cl)ccc2O)ccn1 [Example 43, 4-[[2-(5-Chloro-2-hydroxy-phenyl)acetyl]amino]-N-[1,1-dimethyl-3-(2,2,2-trifluoroethylamino)propyl]pyridine-2-carboxamide] | 174 | 0.7
33 | O=C(Cc1cc(Cl)ccc1O)Nc1ccnc(C(=O)NC23CCC(F)(C2)C3)c1 [Example 44, 4-[[2-(5-Chloro-2-hydroxy-phenyl)acetyl]amino]-N-(4-fluoro-1-bicyclo[2.1.1]hexanyl)pyridine-2-carboxamide] | 377 | 0.05
